Measurements: PubChem BioAssay AID2060485 (Molecular Pharmacology Branch, DTP, NCI, 2025)

System: A375 multi-cell spheroids with HUVEC/MSC, viability
Assay: Anticancer human tumor A375 cell line growth inhibition [GQUAD];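 note: spheroids exposed to compounds for seven days before readout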
Details: for IC50: curve of first compound; for viability, T/C: stronger effect = lower value; active = viability on the fitted dose curve at most 10% of control; inactive = the rest
From the text: DNA G-quadruplex Stabilizer Agents in Combinations in Complex Spheroids
A high-throughput screen of multi-cell type tumor spheroids was designed to identify active combinations of DNA G-quadruplex stabilizer agents and targeted small molecules. Complex spheroids include a stromal component modeled by human endothelial cells (HUVEC) and fibroblasts modeled by human mesenchymal stem cells (MSCs). The concentration ranges selected for each drug and investigational agent were based upon clinically achievable concentrations if the clinical Cmax of the agent was known.
Compounds. The drugs and investigational agents: pidnarulex (CX-5461; NSC782164), APTO-253 (NSC789042), BRACO-19 (NSC847499), peposertib (NSC802822), ceralasertib (NSC780249), elimusertib (NSC800525), camonsertib (NSC841442), AZD-1390 (NSC803789), olaparib (NSC753686), talazoparib (NSC767125), ART-558 (NSC835418), sotorasib (NSC818433), MRTX-1133 (NSC836407), SN-38 (NSC673596), topotecan (NSC609699), etoposide (NSC141540), doxorubicin (NSC123127), gemcitabine (NSC613327), 5-fluorouracil (NSC19893), paclitaxel (NSC125973), vemurafenib (NSC761431), panobinostat (NSC761190), R-306465 (JNJ-16241199; NSC773264), adavosertib (NSC754352), TP-3654 (NSC805149), carboplatin (NSC241240), KSQ-4279 (NSC840948), and staurosporine (NSC755774) were obtained from the National Cancer Institute (NCI) Developmental Therapeutics Program Chemical Repository (34). The FDA-approved anticancer drug set is available from the NCI Developmental Therapeutics Program. […] The stock solutions were prepared in dimethyl sulfoxide (DMSO, Sigma-Aldrich, St. Louis, MO, cat. D2650) at 800-fold the tested concentration and stored at -70 degrees C prior to their use. All drugs and investigational agents were tested over a range starting from a high concentration at or near the clinical Cmax and decreasing in half-log increments. If the clinical Cmax for an agent had not been determined, the highest concentration tested was 10 microM.
2.3 Cell Culture. All cells were maintained in an incubator at 37 degrees C and 5% CO2 with 95% humidity. The PDC lines were cultured according to standard operating procedures established by the NCI PDMR. All PDCs were thawed and cultured in Matrigel-coated flasks prepared with a working solution of 1X Ham's F-12 nutrient mix, without supplementation (Invitrogen, cat. 11765054), 100 U/mL penicillin-streptomycin (Invitrogen, cat. 15140122), and 2.5% Matrigel (Corning Inc., cat. 354248) for the first three passages. The 857933-349-R-J2-PDC line was cultured in 6C/Colon 1B media, which includes advanced DMEM/F-12 (Thermo Fisher Scientific, cat. 12634028), 10 mM HEPES (Thermo Fisher Scientific, cat. 15630080), 1X GlutaMAX supplement (Thermo Fisher Scientific, cat. 35050061), 0.1 mg/mL primocin (InvivoGen, cat. ant-pm-2), 10% defined fetal bovine serum, heat inactivated (HyClone Laboratories Inc., cat. SH30070.03HI), 50% L-WRN conditioned media (ATCC, cat. CRL-3276), 1.25 mM N-Acetyl-L-cysteine (Sigma-Aldrich, cat. A9165), 10 mM nicotinamide (Sigma-Aldrich, cat. N0636), 1X B-27 supplement (Thermo Fisher Scientific, cat. 17504044), 1X N-2 supplement (Thermo Fisher Scientific, cat. 17502048), 10 microM Y-27632 dihydrochloride (Tocris Bioscience, cat. 1254), and 50 ng/mL human EGF recombinant protein (Thermo Fisher Scientific, cat. PHG0311). The 485176-168-R4-J1-PDC line was cultured in Panc media, which includes all 6C/Colon 1B media components plus 100 ng/mL human FGF-10 (Thermo Fisher Scientific, cat. 100-26), 500 nM SB-431542 (Selleckchem, cat. S1067), and gastrin (Tocris, cat. 3006).
[…]

[1] = second compound 0.0316 µM, first compound 0.0316 µM
[2] = second compound 0.0316 µM, first compound 0.1 µM
[3] = second compound 0.0316 µM, first compound 0.316 µM
[4] = second compound 0.0316 µM, first compound 1 µM
[5] = second compound 0.0316 µM, first compound 3.16 µM
[6] = second compound 0.0316 µM, first compound 10 µM
[7] = second compound 0.1 µM, first compound 0.0316 µM
[8] = second compound 0.1 µM, first compound 0.1 µM
[9] = second compound 0.1 µM, first compound 0.316 µM
[10] = second compound 0.1 µM, first compound 1 µM
[11] = second compound 0.1 µM, first compound 3.16 µM
[12] = second compound 0.1 µM, first compound 10 µM
[13] = second compound 0.316 µM, first compound 0.0316 µM
[14] = second compound 0.316 µM, first compound 0.1 µM
[15] = second compound 0.316 µM, first compound 0.316 µM
[16] = second compound 0.316 µM, first compound 1 µM
[17] = second compound 0.316 µM, first compound 3.16 µM
[18] = second compound 0.316 µM, first compound 10 µM
[19] = second compound 1 µM, first compound 0.0316 µM
[20] = second compound 1 µM, first compound 0.1 µM
[21] = second compound 1 µM, first compound 0.316 µM
[22] = second compound 1 µM, first compound 1 µM
[23] = second compound 1 µM, first compound 3.16 µM
[24] = second compound 1 µM, first compound 10 µM
[25] = second compound 3.16 µM, first compound 0.0316 µM
[26] = second compound 3.16 µM, first compound 0.1 µM
[27] = second compound 3.16 µM, first compound 0.316 µM
[28] = second compound 3.16 µM, first compound 1 µM
[29] = second compound 3.16 µM, first compound 3.16 µM
[30] = second compound 3.16 µM, first compound 10 µM
[31] = second compound 10 µM, first compound 0.0316 µM
[32] = second compound 10 µM, first compound 0.1 µM
[33] = second compound 10 µM, first compound 0.316 µM
[34] = second compound 10 µM, first compound 1 µM
[35] = second compound 10 µM, first compound 3.16 µM
[36] = second compound 10 µM, first compound 10 µM

CC1COCCN1c1cc(-c2ccnn2C)c2ccnc(-c3ccn[nH]3)c2n1 (centres undefined) + CN(C)c1ccc(Nc2c3ccc(NC(=O)CCN4CCCC4)cc3nc3cc(NC(=O)CCN4CCCC4)ccc23)cc1
0.339 µM: IC50 (second compound 1 µM)
0.319 µM: IC50 (second compound 3.16 µM)
0.283 µM: IC50 (second compound 10 µM)
0.308 µM: IC50 (second compound 0.0316 µM)
0.344 µM: IC50 (second compound 0.316 µM)
active: viability, T/C [6] 9.41% | viability, T/C [12] 9.57% | viability, T/C [18] 9.6% | viability, T/C [24] 8.68% | viability, T/C [30] 10.2% | viability, T/C [36] 9.62%
0.303 µM: IC50 (second compound 0.1 µM)
inactive: viability, T/C [1] 105% | viability, T/C [2] 78.3% | viability, T/C [3] 50.8% | viability, T/C [4] 25.8% | viability, T/C [5] 10% | viability, T/C [7] 114% | viability, T/C [8] 82% | viability, T/C [9] 48.8% | viability, T/C [10] 26.6% | viability, T/C [11] 10.1% | viability, T/C [13] 111% | viability, T/C [14] 82.6% | viability, T/C [15] 53.6% | viability, T/C [16] 26.7% | viability, T/C [17] 11.1% | viability, T/C [19] 108% | viability, T/C [20] 82.9% | viability, T/C [21] 51.4% | viability, T/C [22] 27.5% | viability, T/C [23] 11.2% | viability, T/C [25] 110% | viability, T/C [26] 83.9% | viability, T/C [27] 48.9% | viability, T/C [28] 28.2% | viability, T/C [29] 10.8% | viability, T/C [31] 97.7% | viability, T/C [32] 74.2% | viability, T/C [33] 47.3% | viability, T/C [34] 27.6% | viability, T/C [35] 11.1%

CC1COCCN1c1cc(C2(S(C)(=N)=O)CC2)nc(-c2ccnc3[nH]ccc23)n1 (centres undefined) + CN(C)c1ccc(Nc2c3ccc(NC(=O)CCN4CCCC4)cc3nc3cc(NC(=O)CCN4CCCC4)ccc23)cc1
6.4 µM: IC50 (second compound 10 µM)
7.46 µM: IC50 (second compound 3.16 µM)
inactive: viability, T/C [1] 102% | viability, T/C [2] 105% | viability, T/C [3] 102% | viability, T/C [4] 108% | viability, T/C [5] 68.5% | viability, T/C [6] 36% | viability, T/C [7] 108% | viability, T/C [8] 104% | viability, T/C [9] 106% | viability, T/C [10] 102% | viability, T/C [11] 67.8% | viability, T/C [12] 34.5% | viability, T/C [13] 105% | viability, T/C [14] 101% | viability, T/C [15] 107% | viability, T/C [16] 107% | viability, T/C [17] 71.9% | viability, T/C [18] 35% | viability, T/C [19] 106% | viability, T/C [20] 95.7% | viability, T/C [21] 114% | viability, T/C [22] 108% | viability, T/C [23] 68% | viability, T/C [24] 43.2% | viability, T/C [25] 118% | viability, T/C [26] 95.8% | viability, T/C [27] 97.2% | viability, T/C [28] 108% | viability, T/C [29] 78.3% | viability, T/C [30] 40.3% | viability, T/C [31] 95.5% | viability, T/C [32] 98.3% | viability, T/C [33] 101% | viability, T/C [34] 96.8% | viability, T/C [35] 64.8% | viability, T/C [36] 40.6%
7.3 µM: IC50 (second compound 1 µM)
5.86 µM: IC50 (second compound 0.1 µM)
6.09 µM: IC50 (second compound 0.0316 µM)
6.26 µM: IC50 (second compound 0.316 µM)
